Test results reported in the NIST ThermoML archive (doi:10.1021/je030161t).
± gives the expanded uncertainty stated by the source. Blank lines part the entries; values can stand above or below the molecule they belong to.

Columns and labels:
[1] = 298.15 K; 101.33 kPa; Liquid; Vibrating tube method
[2] = excess molar enthalpy (molar enthalpy of mixing); xn = mol fraction of the nth substance listed; conditions: 298.15 K, 101.3 kPa, Liquid, Flow calorimetry

SMILES: CCC(C)CC [3-methylpentane]
mass density [1]: 659.94 ± 0.4 kg/m3

SMILES: CC(C)OC(C)C [diisopropyl ether]
mass density [1]: 718.7 ± 0.41 kg/m3

Further lines, results first:

excess molar enthalpy ([2]; x2 = 0.05): 0.0101 ± 0.000263 kcal/mol
excess molar enthalpy ([2]; x2 = 0.1): 0.0188 ± 0.000335 kcal/mol
excess molar enthalpy ([2]; x2 = 0.1499): 0.0262 ± 0.000382 kcal/mol
excess molar enthalpy ([2]; x2 = 0.2): 0.0325 ± 0.00043 kcal/mol
excess molar enthalpy ([2]; x2 = 0.2503): 0.0372 ± 0.000478 kcal/mol
excess molar enthalpy ([2]; x2 = 0.2998): 0.041 ± 0.000502 kcal/mol
excess molar enthalpy ([2]; x2 = 0.3501): 0.0439 ± 0.000526 kcal/mol
excess molar enthalpy ([2]; x2 = 0.3997): 0.046 ± 0.00055 kcal/mol
excess molar enthalpy ([2]; x2 = 0.45): 0.0472 ± 0.00055 kcal/mol
excess molar enthalpy ([2]; x2 = 0.5003): 0.0472 ± 0.00055 kcal/mol
excess molar enthalpy ([2]; x2 = 0.5502): 0.0463 ± 0.00055 kcal/mol
excess molar enthalpy ([2]; x2 = 0.5998): 0.0448 ± 0.000526 kcal/mol
excess molar enthalpy ([2]; x2 = 0.65): 0.0422 ± 0.000526 kcal/mol
excess molar enthalpy ([2]; x2 = 0.7002): 0.0387 ± 0.000478 kcal/mol
excess molar enthalpy ([2]; x2 = 0.7501): 0.0343 ± 0.000454 kcal/mol
excess molar enthalpy ([2]; x2 = 0.8003): 0.029 ± 0.000406 kcal/mol
excess molar enthalpy ([2]; x2 = 0.85): 0.0224 ± 0.000359 kcal/mol
excess molar enthalpy ([2]; x2 = 0.9): 0.0158 ± 0.000311 kcal/mol
excess molar enthalpy ([2]; x2 = 0.95): 0.00855 ± 0.000263 kcal/mol
SMILES: CCC(C)CC [3-methylpentane] + CC(C)OC(C)C

mass density [1]: 726.3 ± 0.41 kg/m3
SMILES: CCCCCCCCCC [decane]

mass density [1]: 698.72 ± 0.4 kg/m3
SMILES: CCCCCCCC [octane]
